The source of these data is patent EP4029501A1, “COMBINATION OF POLYAROMATIC UREA DERIVATIVES AND GLUCOCORTICOID OR HDAC INHIBITOR FOR THE TREATMENT OF DISEASES OR CONDITIONS ASSOCIATED WITH MUSCLE CELLS AND/OR SATELLITE CELLS” (Anagenesis Biotechnologies, priority 2021, dated 2022).

This assay has as its system muscle progenitors derived from DMD hiPSC. Nature of the assay: Myotube assay: total myotube area per well (alpha-actinin staining). The class given is cell-based, human. To be noted: Homo sapiens, Myotube, 72 h, DMD or WT cell source not given; for Emax: efficacy, MA = normalized Myotube Area, 3 days incubation; for EC50: myogenic activity, half-maximal generation of myotubes, 10 points dose-response 1.5 nM to 30 µM, 3 days. On the procedure:
An in vitro assay for assessing the efficacy of compounds for use in treating, ameliorating, delaying, curing and/or preventing a disease or condition associated with muscle cells and/or satellite cells is described in example 78. Herein, the generation of myotubes and satellite cells after adding a compound to a myotube assay workflow is assessed. Said myotube assay workflow is derived from wild-type or DMD human induced pluripotent stem cells (WT hiPSC or DMD hiPSC). Before the addition of said compound, the assay comprises satellite-like cells, but no significant amount of myotubes.
The efficacy of said compound for use in treating, ameliorating, delaying, curing and/or preventing a disease or condition associated with muscle cells and/or satellite cells is positively correlated with the generation of myotubes (i.e. the increase of the area occupied by myotubes on the assay) and/or satellite cells (i.e. the increase of the number of satellite cells) in the assay after adding said compound. The generation of myotubes by the addition of said compound is expressed as the EC50 value, the concentration of said compound that corresponds with the half-maximal generation of myotubes, and the MA (normalized myotube area) value, the normalized area occupied by generated myotubes on the assay. […] Since muscle cells are formed from myotubes during myogenesis, the generation of myotubes in the assay is a good indicator of the ability of said compound to induce the formation of functional muscle cells in vivo. The number of satellite cells is measured as the percentage of Pax7 positive cells, relative to the total number of cells in the assay, as shown in Figure 3. The percentage of Pax7 is a good indicator of the ability of said compound to induce the formation of satellite cells which are able to play a role in muscle repair and regeneration in vivo.
DMD human induced pluripotent stem cells (hereafter "DMD hiPSC"), generated from the NCRM-1 hiPSC WT cell line by gene editing, or WT human induced pluripotent stem cells (hereafter "WT hiPSC"), being NCRM-1 hiPSC wt cell line, have been differentiated according to Chal et al. 2015, 2016, to produce muscle progenitors (hereafter "hMP"). The hMP population contains satellite-like cells (i.e Pax7-positive cells) and satellite cells' progenies (i.e. Myogenin-positive cells).
Figure 1 provides an example of a Myotube assay workflow. At day 0, hMP are thawed and 3.1 million cells are plated into a T75-flask coated with hESC-qualified Matrigel™ (Corning) in SkGM proliferating medium (PromoCells), supplemented with 5 µM Y-27632 (Tocris Bioscience). On day 2, SkGM proliferating medium is refreshed. On day 4, hMP are harvested and transferred into a 384-well plate coated with collagen type I at a density of 3500 cells/well in a DMEM-based medium, containing 5% of knockout serum replacement (Gibco), 1% PenStrep (Gibco), 1% MEM NEAA (Gibco) and 0.1 mM 2-mercaptoethanol (Gibco) (hereafter "K5 medium") and 5 µM Y-27632. Compounds to be tested are then added in the medium and incubated for 3 days at 37°C. On day 7, cells are fixed and immunostained. For example, myotubes (alpha-actinin staining) and satellite-like (Pax7 staining) cells can be analyzed for total myotube area per well or Pax7-positive cell quantification.
DMD hMP were put in the Myotube assay according to the workflow described in Example 2.1. In particular, compound (i) was added at concentrations ranging from 1.5 nM to 30 µM, starting from day 4. hMP were cultivated for three more days in presence of compound (i), then fixed and analyzed for quantification of total myotube area per well. Duplicates of each condition were averaged.

Counter-ions that a name gives are not always drawn.

Turning to `CSc1cc(Oc2ccnc3[nH]c(=O)cnc23)ccc1NC(=O)Nc1nc(-c2ccc(F)c(F)c2)cs1` [(ax), 1-(4-(3,4-difluorophenyl)thiazol-2-yl)-3-(2-(methylthio)-4-((3-oxo-3,4-dihydropyrido[2,3-b]pyrazin-8-yl)oxy)phenyl)urea], the maximum response (Emax) was 50 to 75% and the EC50 was at least 5 µM. On the same counts, the results for `CC(C)c1cc(NC(=O)Nc2ccc(Oc3ccnc4[nH]c(=O)cnc34)cc2F)n(-c2ccccc2)n1` [(b), 1-(2-fluoro-4-((3-oxo-3,4-dihydropyrido[2,3-b]pyrazin-8-yl)oxy)phenyl)-3-(3-isopropyl-1-phenyl-1 H-pyrazol-5-yl)urea] are 25 to 50% and at least 5 µM. For `CC(C)(C)c1cnc(NC(=O)Nc2ccc(Oc3ccnc4[nH]c(=O)cnc34)c3ccccc23)s1` [(ba), 1-(5-(tert-butyl)thiazol-2-yl)-3-(4-((3-oxo-3,4-dihydropyrido[2,3-b]pyrazin-8-yl)oxy)naphthalen-1-yl)urea], in that order: at least 75% and under 0.5 µM. For `CC(C)(C)c1cc(NC(=O)Nc2ccc(Oc3ccnc4[nH]c(=O)cnc34)c3ccccc23)n(-c2ccc3ncccc3c2)n1` [(bb), 1-(3-(tert-butyl)-1-(quinolin-6-yl)-1 H-pyrazol-5-yl)-3-(4-((3-oxo-3,4-dihydropyrido[2,3-b]pyrazin-8-yl)oxy)naphthalen-1-yl)urea], in that order: at least 75% and under 0.5 µM. Consider `CSc1cc(Oc2ccnc3[nH]c(=O)cnc23)ccc1NC(=O)Nc1cc(C(C)(C)C)nn1-c1ccc(C)nc1` [(bd), 1-(3-(tert-butyl)-1-(6-methylpyridin-3-yl)-1 H-pyrazol-5-yl)-3-(2-(methylthio)-4-((3-oxo-3,4-dihydropyrido[2,3-b]pyrazin-8-yl)oxy)phenyl)urea], for which the Emax was at least 75% and the EC50 is under 0.5 µM.

For the molecule `CSc1cc(Oc2ccnc3c2CCCN3)ccc1NC(=O)Nc1cc(C(C)(C)C)nn1-c1ccccc1` [(be), 1-(3-(tert-butyl)-1-phenyl-1H-pyrazol-5-yl)-3-(2-(methylthio)-4-((5,6,7,8-tetrahydro-1,8-naphthyridin-4-yl)oxy)phenyl)urea], the maximum response (Emax) is at least 75% and the concentration giving a half-maximal response (EC50) was in the range of 1 to 5 µM. On the same counts, the results for `CNC(=O)c1cc(Oc2ccc(NC(=O)Nc3cc(C(C)(C)C)nn3-c3ccc4ncccc4c3)c3ccccc23)ccn1` [(bf), 4-((4-(3-(3-(tert-butyl)-1-(quinolin-6-yl)-1 H-pyrazol-5-yl)ureido)naphthalen-1-yl)oxy)-N-methylpicolinamide] are at least 75% and 1 to 5 µM.

On to `CSc1cc(Oc2ccnc3[nH]c(=O)cnc23)ccc1NC(=O)Nc1cc(C(C)(C)C)nn1CCCN1CCOCC1` [(bh), 1-(3-(tert-butyl)-1-(3-morpholinopropyl)-1 H-pyrazol-5-yl)-3-(2-(methylthio)-4-((3-oxo-3,4-dihydropyrido[2,3-b]pyrazin-8-yl)oxy)phenyl)urea], for which the Emax was at least 75% and the half-maximal effective concentration (EC50) was at least 5 µM. On the same counts, the results for `CSc1cc(Oc2ccnc(NC(=O)OC(C)(C)C)c2)ccc1NC(=O)Nc1cc(C(C)(C)C)nn1-c1ccccc1` [(bi), tert-butyl (4-(4-(3-(3-(tert-butyl)-1-phenyl-1H-pyrazol-5-yl)ureido)-3-(methylthio)phenoxy)pyridin-2-yl)carbamate] are at least 75% and under 0.5 µM.

The molecule `CSc1cc(Oc2ccnc(N)c2)ccc1NC(=O)Nc1cc(C(C)(C)C)nn1-c1ccccc1` [(bj), 1-(4-((2-aminopyridin-4-yl)oxy)-2-(methylthio)phenyl)-3-(3-(tert-butyl)-1-phenyl-1H-pyrazol-5-yl)urea hydrochloride] registered a maximum response (Emax) of at least 75% and a concentration for a half-maximal effect (EC50) of at least 5 µM. With `CC(C)c1cc(Oc2ccnc3[nH]c(=O)cnc23)ccc1NC(=O)Nc1cc(C(C)(C)C)nn1-c1ccccc1` [(bk), 1-(3-(tert-butyl)-1-phenyl-1H-pyrazol-5-yl)-3-(2-isopropyl-4-((3-oxo-3,4-dihydropyrido[2,3-b]pyrazin-8-yl)oxy)phenyl)urea], the Emax is at least 75% and the 50% effective concentration (EC50) was at least 5 µM. For `CC(C)(C)c1cc(NC(=O)Nc2ccc(Oc3ccncc3)cc2)n(-c2ccccc2)n1` [(bl), 1-(3-(tert-butyl)-1-phenyl-1 H-pyrazol-5-yl)-3-(4-(pyridin-4-yloxy)phenyl)urea], in that order: 50 to 75% and 0.5 to 1 µM. On the same counts, the results for `CSc1cc(Oc2ccnc3[nH]c(=O)cnc23)ccc1NC(=O)Nc1cc(C(C)(C)C)nn1-c1ccc2ncccc2c1` [(bm), 1-(3-(tert-butyl)-1-(quinolin-6-yl)-1 H-pyrazol-5-yl)-3-(2-(methylthio)-4-((3-oxo-3,4-dihydropyrido[2,3-b]pyrazin-8-yl)oxy)phenyl)urea] are at least 75% and under 0.5 µM. For `CSc1cc(Oc2ccnc3[nH]c(=O)cnc23)ccc1NC(=O)Nc1cc(C(C)(C)C)nn1C1CCCCC1` [(bn), 1-(3-(tert-butyl)-1-cyclohexyl-1H-pyrazol-5-yl)-3-(2-(methylthio)-4-((3-oxo-3,4-dihydropyrido[2,3-b]pyrazin-8-yl)oxy)phenyl)urea], in that order: 50 to 75% and at least 5 µM. Regarding `CC(C)(C)c1cc(NC(=O)Nc2ccc(Oc3ccnc4[nH]c(=O)cnc34)c(F)c2F)n(-c2ccccc2)n1` [(bo), 1-(3-(tert-butyl)-1-phenyl-1 H-pyrazol-5-yl)-3-(2,3-difluoro-4-((3-oxo-3,4-dihydropyrido[2,3-b]pyrazin-8-yl)oxy)phenyl)urea], the maximal effect (Emax) is at least 75% and the 50% effective concentration (EC50) is under 0.5 µM.

Regarding `CSc1cc(Oc2ccnc(NC(=O)CN(C)C(=O)OC(C)(C)C)c2)ccc1NC(=O)Nc1cc(C(C)(C)C)nn1-c1ccccc1` [(bp), tert-butyl (2-((4-(4-(3-(3-(tert-butyl)-1-phenyl-1H-pyrazol-5-yl)ureido)-3-(methylthio)phenoxy)pyridin-2-yl)amino)-2-oxoethyl)(methyl)carbamate], the Emax was at least 75% and the EC50 was under 0.5 µM. Regarding `CNCC(=O)Nc1cc(Oc2ccc(NC(=O)Nc3cc(C(C)(C)C)nn3-c3ccccc3)c(SC)c2)ccn1` [(bq), N-(4-(4-(3-(3-(tert-butyl)-1-phenyl-1H-pyrazol-5-yl)ureido)-3-(methylthio)phenoxy)pyridin-2-yl)-2-(methylamino)acetamide], the maximal response (Emax) was at least 75%.

Molecule `CNC(=O)c1cc(Oc2ccc(NC(=O)Nc3cc(C(C)(C)C)nn3-c3ccccc3)c(SC)c2)ccn1` [(br), 4-(4-(3-(3-(tert-butyl)-1-phenyl-1H-pyrazol-5-yl)ureido)-3-(methylthio)phenoxy)-N-methylpicolinamide] registered an Emax of at least 75% and an EC50 of at least 5 µM. Molecule `CSc1cc(Oc2ccnc3nccnc23)ccc1NC(=O)Nc1cc(C(C)(C)C)nn1-c1ccccc1` [(bs), 1-(3-(tert-butyl)-1-phenyl-1 H-pyrazol-5-yl)-3-(2-(methylthio)-4-(pyrido[2,3-b]pyrazin-8-yloxy)phenyl)urea] showed a maximal response (Emax) of at least 75% and an EC50 of at least 5 µM. For `CC(C)(C)c1cc(NC(=O)Nc2cc(F)c(Oc3ccnc4[nH]c(=O)cnc34)cc2F)n(-c2ccccc2)n1` [(bt), 1-(3-(tert-butyl)-1-phenyl-1 H-pyrazol-5-yl)-3-(2,5-difluoro-4-((3-oxo-3,4-dihydropyrido[2,3-b]pyrazin-8-yl)oxy)phenyl)urea], in that order: at least 75% and 0.5 to 1 µM.

One may read the Emax as the size of the effect at its maximum, as opposed to the concentration needed. For orientation: EC50 means the concentration giving half of the maximal effect.
